Laboratory results: patent publication US7534781B2 (DSM IP Assets B.V., priority 2003, dated 2009)

Experiments:
Format in all cases: physicochemical
[1] = Tapped density according to USP 24, method II; settings: trihydrate; for Tap. dens. (dt): USP 24, method II; for db*(1/db − 1/dt)*100%: compressibility index from bulk and tapped density
[2] = Particle size distribution (d10, d50) by laser diffraction, Malvern particle sizer 2600 C; settings: dry powder, f=300 mm, trihydrate
Source text: The d10 and d50 are known ways for indicating a particle size distribution, d50 referring to the value for the particle size such that 50 vol. % of the particles has a particle size smaller than said value. The d50 is also referred to as average volume-based grain size. Likewise, d10 refers to the value for the particle size such that 10 vol. % of the particles has a particle size smaller than said value. A preferred way for determining d10 and d50 is laser diffraction, preferably using Malvern equipment. A suitable apparatus for determining d10 and d50 is a Malvern particle sizer 2600 C obtainable from Malvern Instruments Ltd., Malvern UK, for instance using an objective of f=300 mm and a beam length of 14.30 mm. A polydisperse analysis model may advantageously be used.
The particle size distribution (including d10 and d50) of samples from the mixer was determined using a Malvern particle sizer 2600 C with objective f=300 mm, malvern sample measurement unit PS1 and a Malvern dry powder feeder PS 64. The beam length was 14.30 mm. A polydisperse analysis model was used.

[3] = Bulk density according to USP 24, method I; settings: trihydrate
Source text: Preferably, the crystalline powder according to the invention has a bulk density higher than 0.46 g/ml, preferably higher than 0.5 g/ml, more preferably higher than 0.55 g/ml. This further improves the flow properties. Moreover, an increased bulk density is advantageous as crystalline powder may be fed into a certain volume, for instance a capsule. There is no specific upper limit for the bulk density. The bulk density may be less than 0.8 g/ml, for instance less than 0.7 g/ml. The bulk density is preferably determined according to USP 24, method I, (page 1913).
The bulk density was determined according to USP 24, method I, (page 1913).

[4] = Dissolution test of capsules, USP 27 amoxicillin capsules, apparatus 1; settings: 500 mg (anhydrous basis) in gelatine capsule size 0, 900 ml water, 37° C., 100 rpm
Method: In one aspect of the invention, the crystalline powder according to the invention has a high dissolution rate. Preferably, the crystalline powder according to the invention has a T85% of less than 55 minutes, preferably less than 50 minutes, preferably less than 40 minutes, preferably less than 30 minutes, preferably less than 25 minutes, preferably less than 20 minutes. T85% may for instance be above 5 minutes. […] The determination of T85% is preferably carried out under conditions as defined in USP 27, chapter “amoxicillin capsules”, involving the use of apparatus 1 and applying a stirring rate of 100 rpm (USP 27, paragraph 711). Preferably, samples are taken at regular intervals, e.g. each 5 minutes, to determine the quantity of dissolved amoxicillin by UV absorption.
No auxiliaries were added. Dissolution tests were applied using apparatus 1 under the conditions as described in USP 27 under paragraph “amoxicillin capsules”, including a stirring rate of 100 rpm and a temperature of 37° C. Six beakers each containing 900 ml of water were used. Samples were taken each 5 minutes, and the quantity of dissolved amoxicillin were determined employing UV absorption at the wavelength of maximum absorbance at 272 nm. • 84 wt. % of the amoxicillin was dissolved in 15 minutes. • 90 wt. % of the amoxicillin was dissolved in 20 minutes.

Flow through Klein cup = settings: Klein cup 8 mm; overheads fraction after air jet sieving 75 μm
Method: The powder of example V was subjected to air jet sieving (200 LS-N air jet sieve manufactured by Hosakawa Alpine). Sieving was carried out using a 75 μm screen during 10 minutes. A few agglomerates formed during said sieving were removed from the overheads fraction (not passed through the sieve) tusing a vibrating sieve (425 μm), after which tapped density, bulk density, d50, d10 of the resulting crystals of the overheads fraction was determined.

SMILES: CC1(C)S[C@@H]2[C@H](NC(=O)[C@H](N)c3ccc(O)cc3)C(=O)N2[C@H]1C(=O)O.O.O.O [Comp. A, amoxicillin trihydrate, reference compound]
- Tap. dens. (dt) [1]: 0.55 g/mL
- db*(1/db − 1/dt)*100% [1]: 53%
- d10 [2]: 4.0 μm
- d50 [2]: 17 μm
- Bulk dens. (db) [3]: 0.26 g/mL

SMILES: CC1(C)S[C@@H]2[C@H](NC(=O)[C@H](N)c3ccc(O)cc3)C(=O)N2[C@H]1C(=O)O.O.O.O [Ex. I, amoxicillin trihydrate]
- Tap. dens. (dt) [1]: 0.73 g/mL
- db*(1/db − 1/dt)*100% [1]: 30%
- Bulk dens. (db) [3]: 0.51 g/mL

SMILES: CC1(C)S[C@@H]2[C@H](NC(=O)[C@H](N)c3ccc(O)cc3)C(=O)N2[C@H]1C(=O)O.O.O.O [Ex. II, amoxicillin trihydrate]
- Tap. dens. (dt) [1]: 0.78 g/mL
- db*(1/db − 1/dt)*100% [1]: 28%
- d10 [2]: 8.8 μm
- d50 [2]: 42.8 μm
- Bulk dens. (db) [3]: 0.56 g/mL

SMILES: CC1(C)S[C@@H]2[C@H](NC(=O)[C@H](N)c3ccc(O)cc3)C(=O)N2[C@H]1C(=O)O.O.O.O [Ex. III, amoxicillin trihydrate]
- Tap. dens. (dt) [1]: 0.81 g/mL
- db*(1/db − 1/dt)*100% [1]: 31%
- d10 [2]: 9.9 μm
- d50 [2]: 47.8 μm
- Bulk dens. (db) [3]: 0.56 g/mL

SMILES: CC1(C)S[C@@H]2[C@H](NC(=O)[C@H](N)c3ccc(O)cc3)C(=O)N2[C@H]1C(=O)O.O.O.O [Ex. IV, amoxicillin trihydrate]
- Tap. dens. (dt) [1]: 0.81 g/mL
- db*(1/db − 1/dt)*100% [1]: 33%
- amoxicillin dissolved ([4]; in 15 minutes): 84 wt. %
- amoxicillin dissolved ([4]; in 20 minutes): 90 wt. %
- d10 [2]: 7.0 μm
- d50 [2]: 37.0 μm
- Bulk dens. (db) [3]: 0.54 g/mL

SMILES: CC1(C)S[C@@H]2[C@H](NC(=O)[C@H](N)c3ccc(O)cc3)C(=O)N2[C@H]1C(=O)O.O.O.O [Ex. V, amoxicillin trihydrate]
- Tap. dens. (dt) [1]: 0.79 g/mL
- db*(1/db − 1/dt)*100% [1]: 26%
- d10 [2]: 19 μm
- d50 [2]: 61 μm
- Bulk dens. (db) [3]: 0.58 g/mL

SMILES: CC1(C)S[C@@H]2[C@H](NC(=O)[C@H](N)c3ccc(O)cc3)C(=O)N2[C@H]1C(=O)O.O.O.O [Ex. VI, amoxicillin trihydrate]
- flow through Klein cup (Flow through Klein cup): flows through Klein cup 8 mm
- Tap. dens. (dt) [1]: 0.74 g/mL
- db*(1/db − 1/dt)*100% [1]: 20%
- d10 [2]: 36 μm
- d50 [2]: 86 μm
- Bulk dens. (db) [3]: 0.59 g/mL

SMILES: CC1(C)S[C@@H]2[C@H](NC(=O)[C@H](N)c3ccc(O)cc3)C(=O)N2[C@H]1C(=O)O.O.O.O [Ref. B, amoxicillin trihydrate, reference compound]
- Tap. dens. (dt) [1]: 0.47 g/mL
- db*(1/db − 1/dt)*100% [1]: 45%
- Bulk dens. (db) [3]: 0.26 g/mL
